# Target: T1, Msh2–Msh6 (Saccharomyces cerevisiae, UniProt P25847+Q03834)
# T1 sequence (P25847 1-964): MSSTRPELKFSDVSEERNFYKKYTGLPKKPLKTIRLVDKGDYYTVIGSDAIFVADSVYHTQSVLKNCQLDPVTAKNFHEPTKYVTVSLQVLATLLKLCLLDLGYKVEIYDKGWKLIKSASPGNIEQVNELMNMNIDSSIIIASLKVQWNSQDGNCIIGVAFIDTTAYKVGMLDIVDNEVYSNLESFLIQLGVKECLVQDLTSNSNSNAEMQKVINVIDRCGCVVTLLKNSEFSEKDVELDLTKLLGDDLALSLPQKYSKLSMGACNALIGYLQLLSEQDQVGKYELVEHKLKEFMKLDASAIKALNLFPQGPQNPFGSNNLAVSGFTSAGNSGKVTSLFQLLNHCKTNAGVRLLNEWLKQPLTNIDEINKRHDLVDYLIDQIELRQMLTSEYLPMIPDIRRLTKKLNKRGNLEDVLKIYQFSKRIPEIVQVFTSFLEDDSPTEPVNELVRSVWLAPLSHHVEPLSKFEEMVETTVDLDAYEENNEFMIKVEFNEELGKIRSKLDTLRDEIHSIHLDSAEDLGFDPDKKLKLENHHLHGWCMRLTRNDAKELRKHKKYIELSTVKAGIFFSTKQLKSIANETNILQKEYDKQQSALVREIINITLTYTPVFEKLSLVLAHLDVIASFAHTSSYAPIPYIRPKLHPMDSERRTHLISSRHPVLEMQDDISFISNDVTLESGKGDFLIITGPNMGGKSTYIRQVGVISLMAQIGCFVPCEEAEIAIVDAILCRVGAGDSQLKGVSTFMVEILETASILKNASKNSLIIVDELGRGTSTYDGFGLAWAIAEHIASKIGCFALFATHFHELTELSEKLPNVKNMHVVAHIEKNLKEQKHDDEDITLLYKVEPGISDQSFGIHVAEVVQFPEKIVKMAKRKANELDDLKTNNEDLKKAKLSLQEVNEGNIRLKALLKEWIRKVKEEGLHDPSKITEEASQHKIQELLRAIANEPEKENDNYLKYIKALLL
# T1 sequence (Q03834 1-1242): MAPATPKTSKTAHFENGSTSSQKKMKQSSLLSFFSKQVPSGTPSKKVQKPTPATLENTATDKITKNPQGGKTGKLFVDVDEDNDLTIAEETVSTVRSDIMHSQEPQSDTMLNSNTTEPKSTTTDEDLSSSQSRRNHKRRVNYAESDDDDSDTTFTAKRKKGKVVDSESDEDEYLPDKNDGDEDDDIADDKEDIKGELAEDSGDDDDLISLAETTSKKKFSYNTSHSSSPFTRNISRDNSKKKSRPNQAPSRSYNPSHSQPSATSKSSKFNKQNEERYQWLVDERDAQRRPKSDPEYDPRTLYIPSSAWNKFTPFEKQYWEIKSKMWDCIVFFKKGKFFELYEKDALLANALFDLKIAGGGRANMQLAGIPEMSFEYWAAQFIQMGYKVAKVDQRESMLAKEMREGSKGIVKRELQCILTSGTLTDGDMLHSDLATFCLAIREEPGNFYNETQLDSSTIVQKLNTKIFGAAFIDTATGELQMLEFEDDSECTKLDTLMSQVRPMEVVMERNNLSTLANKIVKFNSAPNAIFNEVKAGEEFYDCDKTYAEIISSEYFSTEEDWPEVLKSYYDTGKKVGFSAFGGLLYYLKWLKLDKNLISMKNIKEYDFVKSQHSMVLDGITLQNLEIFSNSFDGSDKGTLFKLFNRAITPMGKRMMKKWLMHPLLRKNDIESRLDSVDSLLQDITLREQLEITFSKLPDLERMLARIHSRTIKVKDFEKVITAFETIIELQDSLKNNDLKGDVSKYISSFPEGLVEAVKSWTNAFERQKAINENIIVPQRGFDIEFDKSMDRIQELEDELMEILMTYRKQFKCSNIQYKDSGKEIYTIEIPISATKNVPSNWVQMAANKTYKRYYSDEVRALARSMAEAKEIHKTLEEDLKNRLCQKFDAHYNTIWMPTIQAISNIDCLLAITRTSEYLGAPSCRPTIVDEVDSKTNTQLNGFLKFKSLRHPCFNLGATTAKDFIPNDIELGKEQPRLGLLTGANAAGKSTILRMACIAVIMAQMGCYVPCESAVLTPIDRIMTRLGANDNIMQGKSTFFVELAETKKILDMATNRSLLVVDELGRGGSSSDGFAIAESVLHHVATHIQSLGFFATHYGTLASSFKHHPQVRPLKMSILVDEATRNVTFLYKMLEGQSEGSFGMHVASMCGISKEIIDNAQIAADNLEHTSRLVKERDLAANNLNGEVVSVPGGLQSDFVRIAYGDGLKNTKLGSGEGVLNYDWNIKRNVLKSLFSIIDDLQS
# Test: UV cross-linking of [γ-32P]ATP, SDS-PAGE, phosphorimaging
# Assay type: binding
# Settings: labelled compound; reference complex; no Mg2+, EDTA, pH 8, on ice; Msh2 site at 60 μM ATP, Msh6 site at 1 μM ATP
compound,measurement,value
Nc1ncnc2c1ncn2[C@@H]1O[C@H](COP(=O)(O)OP(=O)(O)OP(=O)(O)O)[C@@H](O)[C@H]1O [ATP],"UV cross-linking of [γ-32P]ATP, SDS-PAGE, phosphorimaging",ATP binding at these concentrations was compared with WT Msh2–Msh6

# — PMC6254361, “The properties of Msh2–Msh6 ATP binding mutants suggest a signal amplification mechanism in DNA mismatch repair” (The Journal of Biological Chemistry, 2018)
